Source: article PMC3060972 (Peptides, 2011)

How the values were obtained:
E. coli [1] = assay: Radial diffusion assay; format: cell-based; settings: qualitative comparison with wild type BF2
E. coli [2] = assay: Membrane permeability by propidium iodide; format: cell-based; settings: qualitative comparison with wild type BF2; PI uptake in E. coli

Sequence | ANTIMICROBIAL ACTIVITY compared to wild type (E. coli [1]) | MEMBRANE PERMEABILIZATION compared to wild type (E. coli [2])
TRSSRAPLQFAVGRVHRLLRK [P11A/G7P] | SIMILAR | HIGHER
TRSSRAGLQFAVGRVHRLLRK [P11A] | LOWER | HIGHER
TRSSRAGLQFAVGRPHRLLRK [P11A/V15P] | LOWER | SIMILAR
TRSSRAGLQFAPGRVHRLLRK [P11A/V12P] | LOWER | SIMILAR
